According to patent US20130317029A1 (PORTOLA PHARMACEUTICALS, INC., priority 2010, published 2013):
pIC50: −log10 of the molar value.

Biological target: T1, full length active recombinant SYK enzyme (Homo sapiens, UniProt P43405)
T1 construct: full length active recombinant SYK enzyme (Millipore, Calif.); purchased Millipore
Test: Inhibition of Syk tyrosine phosphorylation activity (LANCE TR-FRET kinase assay)
Type: biochemical
Source text: This example illustrates methods for evaluating the compounds of the invention, along with results obtained for such assays. The in vitro and in vivo human Syk activities of the inventive compounds can be determined by various procedures known in the art, such as a test for their ability to inhibit the activity of human plasma Syk. […] The IC50 value is the concentration (in nM) of the compound required to provide 50% inhibition of human Syk proteolytic activity.
Potency of candidate molecules for inhibiting Syk tyrosine phosphorylation activity is assessed by measuring the ability of a test compound to inhibit Syk-mediated tyrosine phosphorylation of a Syk-specific substrate.
SYK tyrosine phosphorylation activity is measured using the LANCE™ Technology developed by Perkin Elmer Life and Analytical Sciences (Boston, Mass.). LANCE™ refers to homogeneous time resolved fluorometry applications using techniques such as time-resolved fluorescence resonance energy transfer assay (TR-FRET) (see generally for procedures in Perkin Elmer Application Note—How to Optimize a Tyrosine Kinase Assay Using Time Resolved Fluorescence-Based LANCE Detection, wwww.perkinelmer.com/lifesciences). The assay principle involves detection of a phosphorylated substrate using energy transfer from a phosphospecific europium-labeled antibody to streptavidin-allophycocyanin as an acceptor.
To test the ability of candidate molecules to inhibit SYK tyrosine phosphorylation activity, molecules are reconstituted in 30% DMSO and serially diluted 1:3 with the final dilution containing DMSO in the absence of the candidate molecule. The final DMSO concentration in the assay is 3%. Kinase assays are performed as a two part reaction. The first reaction is a kinase reaction and which comprises of a candidate molecule, full length active recombinant SYK enzyme (Millipore, Calif.) and biotin-labeled SYK-specific substrate biotin-[…]-OH. The second reaction involves termination of the kinase reaction and the simultaneous addition of the detection reagents-europium-labeled anti-phosphotyrosine reagent (Eu-W1024-PY100, Perkin Elmer, Boston, Mass.) and Streptavidin-Allophycocyanin detection reagent (SA-APC, Prozyme, Calif.). The kinase reaction is performed in a black U-bottom 96-well microtitre plate. The final reaction volume is 50 μL and contains a final concentration of 1 nM active SYK enzyme, 550 nM SYK-substrate, and 100 μM ATP diluted in a buffer containing 50 mM Tris pH 7.5, 5 mM MgCl2, and 1 mM DTT. The reaction is allowed to proceed for 1 hour at room temperature. The quench buffer contains 100 mM Tris pH 7.5, 300 mM NaCl2, 20 mM EDTA, 0.02% Brij35, and 0.5% BSA. The detection reagents are added to the reaction mixture at the following dilutions-1:500 for Eu-W1024-PY100 and 1:250 for SA-APC. The kinase reaction is terminated by the addition of 50 μL quench buffer containing the detection reagents. The detection is allowed to proceed for 1 hr at room temperature. Detection of the phosphorlated substrate in the absence and presence of inhibitors is measured in the TR-FRET instrument, Analyst HT (Molecular Probes, Sunnyvale, Calif.) and the condition for measurements are set up using CriterionHost Release 2.0 (Molecular Probes, Sunnyvale, Calif.). The settings used are a follows: excitation 360 nm, emission 665-7.5 nm, beam splitter 350 nm 50/50, flash 100 pulses, delay 60 us, integration 400 us, z-height 2 mm. Inhibition of SYK-tyrosine kinase activity is calculated as the maximum response observed in the presence of inhibitor, compared to that in the absence of inhibitor. IC50s were derived by non-linear regression analysis.

Row | SMILES | pIC50
1 | COc1nc(N[C@@H](C(N)=O)C(C)C)nc(Nc2cc(C)cc(C)c2)c1C(N)=O [Example 1, (R)-2-(1-amino-3-methyl-1-oxobutan-2-ylamino)-4-(3,5-dimethylphenylamino)-6-methoxypyrimidine-5-carboxamide] | 7.00 to 8.00
2 | Cc1cc(C)cc(Nc2nc(N[C@@H](C(N)=O)C(C)C)[nH]c(=O)c2C(N)=O)c1 [Example 2, (R)-2-(1-amino-3-methyl-1-oxobutan-2-ylamino)-4-(3,5-dimethylphenylamino)-6-oxo-1,6-dihydropyrimidine-5-carboxamide] | 8.00 to 9.00
3 | COc1nc(N[C@@H]2CCCC[C@@H]2N)nc(Nc2cccc(-n3nccn3)c2)c1C(N)=O [Example 3, 2-((1R,2S)-2-aminocyclohexylamino)-4-(3-(2H-1,2,3-triazol-2-yl)phenylamino)-6-methoxypyrimidine-5-carboxamide] | 7.00 to 8.00
4 | CCOc1nc(N[C@@H](C(N)=O)C(C)C)nc(Nc2cc(C)cc(C)c2)c1C(N)=O [Example 4, (R)-2-(1-amino-3-methyl-1-oxobutan-2-ylamino)-4-(3,5-dimethylphenylamino)-6-ethoxypyrimidine-5-carboxamide] | 6.00 to 7.00
5 | NC(=O)c1c(Nc2cccc(-n3nccn3)c2)nc(N[C@@H]2CCCC[C@@H]2N)[nH]c1=O [Example 5] | 8.00 to 9.00
6 | CC(C)[C@@H](Nc1nc(Nc2cccc(-n3nccn3)c2)c(C(N)=O)c(=O)[nH]1)C(N)=O [Example 6, (R)-4-(3-(2H-1,2,3-triazol-2-yl)phenylamino)-2-(1-amino-3-methyl-1-oxobutan-2-ylamino)-6-oxo-1,6-dihydropyrimidine-5-carboxamide] | 8.00 to 9.00
7 | CC(C)C[C@@H](Nc1nc(Nc2cccc(-n3nccn3)c2)c(C(N)=O)c(=O)[nH]1)C(N)=O [Example 7, (R)-4-(3-(2H-1,2,3-triazol-2-yl)phenylamino)-2-(1-amino-4-methyl-1-oxopentan-2-ylamino)-6-oxo-1,6-dihydropyrimidine-5-carboxamide] | 7.00 to 8.00
8 | CC[C@@H](Nc1nc(Nc2cccc(-n3nccn3)c2)c(C(N)=O)c(=O)[nH]1)C(N)=O [Example 8, (R)-4-(3-(2H-1,2,3-triazol-2-yl)phenylamino)-2-(1-amino-1-oxobutan-2-ylamino)-6-oxo-1,6-dihydropyrimidine-5-carboxamide] | 7.00 to 8.00
9 | Cc1cccc(Nc2nc(N[C@H](CC(C)C)C(N)=O)[nH]c(=O)c2C(N)=O)c1 [Example 9, (R)-2-(1-amino-4-methyl-1-oxopentan-2-ylamino)-6-oxo-4-(m-tolylamino)-1,6-dihydropyrimidine-5-carboxamide] | 8.00 to 9.00
10 | Cc1cccc(Nc2nc(N[C@@H](C(N)=O)C(C)C)[nH]c(=O)c2C(N)=O)c1 [Example 10, (R)-2-(1-amino-3-methyl-1-oxobutan-2-ylamino)-6-oxo-4-(m-tolylamino)-1,6-dihydropyrimidine-5-carboxamide] | 8.00 to 9.00
11 | CC[C@@H](Nc1nc(Nc2cccc(C)c2)c(C(N)=O)c(=O)[nH]1)C(N)=O [Example 11, (R)-2-(1-amino-1-oxobutan-2-ylamino)-6-oxo-4-(m-tolylamino)-1,6-dihydropyrimidine-5-carboxamide] | 8.00 to 9.00
12 | Cc1cc(C)cc(Nc2nc(N[C@@H](CN)C(C)C)[nH]c(=O)c2C(N)=O)c1 [Example 12, (R)-2-(1-amino-3-methylbutan-2-ylamino)-4-(3,5-dimethylphenylamino)-6-oxo-1,6-dihydropyrimidine-5-carboxamide] | 8.00 to 9.00
13 | CC(C)C[C@@H](Nc1nc(Nc2ccc3ncccc3c2)c(C(N)=O)c(=O)[nH]1)C(N)=O [Example 13, (R)-2-(1-amino-4-methyl-1-oxopentan-2-ylamino)-6-oxo-4-(quinolin-6-ylamino)-1,6-dihydropyrimidine-5-carboxamide] | > 9.00
14 | CNCCNc1nc(Nc2cccc(C)c2)c(C(N)=O)c(=O)[nH]1 [Example 14] | 7.00 to 8.00
15 | COc1nc(N[C@@H](C(N)=O)C(C)C)nc(Nc2ccc3ncccc3c2)c1C(N)=O [Example 15, (R)-2-(1-amino-3-methyl-1-oxobutan-2-ylamino)-4-methoxy-6-(quinolin-6-ylamino)pyrimidine-5-carboxamide] | 7.00 to 8.00
16 | CC[C@@H](Nc1nc(Nc2ccc3ncccc3c2)c(C(N)=O)c(OC)n1)C(N)=O [Example 16, (R)-2-(1-amino-1-oxobutan-2-ylamino)-4-methoxy-6-(quinolin-6-ylamino)pyrimidine-5-carboxamide] | 7.00 to 8.00
17 | CC[C@@H](Nc1nc(Nc2ccc3c(ccc[n+]3[O-])c2)c(C(N)=O)c(OC)n1)C(N)=O [Example 17, (R)-6-(2-(1-amino-1-oxobutan-2-ylamino)-5-carbamoyl-6-methoxypyrimidin-4-ylamino)quinoline 1-oxide] | 7.00 to 8.00
18 | CC(C)C[C@@H](Nc1nc(Nc2ccc(-n3cccn3)cc2)c(C(N)=O)c(=O)[nH]1)C(N)=O [Example 18] | 8.00 to 9.00
19 | CC(C)[C@@H](Nc1nc(Nc2ccc(-n3cccn3)cc2)c(C(N)=O)c(=O)[nH]1)C(N)=O [Example 19] | 8.00 to 9.00
20 | CC(C)[C@@H](Nc1nc(Nc2ccc3ncccc3c2)c(C(N)=O)c(=O)[nH]1)C(N)=O [Example 20, (R)-2-(1-amino-3-methyl-1-oxobutan-2-ylamino)-6-oxo-4-(quinolin-6-ylamino)-1,6-dihydropyrimidine-5-carboxamide] | 8.00 to 9.00
21 | CC[C@@H](Nc1nc(Nc2ccc3ncccc3c2)c(C(N)=O)c(=O)[nH]1)C(N)=O [Example 21, (R)-2-(1-amino-1-oxobutan-2-ylamino)-6-oxo-4-(quinolin-6-ylamino)-1,6-dihydropyrimidine-5-carboxamide] | > 9.00
22 | CC(C)[C@H](CN)Nc1nc(Nc2cccc(-n3nccn3)c2)c(C(N)=O)c(=O)[nH]1 [Example 22, (R)-4-(3-(2H-1,2,3-triazol-2-yl)phenylamino)-2-(1-amino-3-methylbutan-2-ylamino)-6-oxo-1,6-dihydropyrimidine-5-carboxamide] | 8.00 to 9.00
23 | CNCCNc1nc(Nc2cccc(-n3nccn3)c2)c(C(N)=O)c(=O)[nH]1 [Example 23, 4-(3-(2H-1,2,3-triazol-2-yl)phenylamino)-2-(2-(methylamino)ethylamino)-6-oxo-1,6-dihydropyrimidine-5-carboxamide] | 7.00 to 8.00
24 | CC[C@@H](Nc1nc(Nc2ccc(-n3cccn3)cc2)c(C(N)=O)c(=O)[nH]1)C(N)=O [Example 24] | 8.00 to 9.00
25 | CC(C)C[C@@H](Nc1nc(Nc2ccc3[nH]ncc3c2)c(C(N)=O)c(=O)[nH]1)C(N)=O [Example 25, (R)-4-(1H-indazol-5-ylamino)-2-(1-amino-4-methyl-1-oxopentan-2-ylamino)-6-oxo-1,6-dihydropyrimidine-5-carboxamide] | > 9.00
26 | CC(C)[C@@H](Nc1nc(Nc2ccc3[nH]ncc3c2)c(C(N)=O)c(=O)[nH]1)C(N)=O [Example 26, (R)-4-(1H-indazol-5-ylamino)-2-(1-amino-3-methyl-1-oxobutan-2-ylamino)-6-oxo-1,6-dihydropyrimidine-5-carboxamide] | > 9.00
27 | CC(C)C[C@@H](Nc1nc(Nc2cccc(-c3ncccn3)c2)c(C(N)=O)c(=O)[nH]1)C(N)=O [Example 27, (R)-2-(1-amino-4-methyl-1-oxopentan-2-ylamino)-6-oxo-4-(3-(pyrimidin-2-yl)phenylamino)-1,6-dihydropyrimidine-5-carboxamide] | 8.00 to 9.00
28 | CC(C)[C@@H](Nc1nc(Nc2cccc(-c3ncccn3)c2)c(C(N)=O)c(=O)[nH]1)C(N)=O [Example 28, (R)-2-(1-amino-3-methyl-1-oxobutan-2-ylamino)-6-oxo-4-(3-(pyrimidin-2-yl)phenylamino)-1,6-dihydropyrimidine-5-carboxamide] | 7.00 to 8.00
29 | CC(C)C[C@@H](Nc1nc(Nc2ccc3ncsc3c2)c(C(N)=O)c(=O)[nH]1)C(N)=O [Example 29] | > 9.00
30 | CC(C)[C@@H](Nc1nc(Nc2ccc3ncsc3c2)c(C(N)=O)c(=O)[nH]1)C(N)=O [Example 30] | > 9.00
